Assay results taken from PubChem BioAssay AID248 (DTP/NCI, 2004).
Where “and” joins values, the source holds several entries; their conditions need not be identical. Identical values can stand only once. Inconclusive results and toxic doses are left out. No stated cut-off is given here; in the data, active means T/C of 150% or more; inactive means T/C below 125%. Peptide text beside a SMILES is read from it.

Tested on: L1210 leukemia ip in BDF1 mice, survival T/C
Test: NCI In Vivo Anticancer Drug Screen. Data for tumor model L1210 Leukemia (intraperitoneal) in B6D2F1 (BDF1) mice
Settings: endpoint: mean survival time, higher = longer survival
Outline: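 Survival endpoint. Drug-treated group vs vehicle group, expressed as T divided by C. Tumor passaged by transplantation.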

[1] = dose: 100.0 mg/kg/injection, schedule: Q01DX001 (ip), vehicle: saline
[2] = dose: 200.0 mg/kg/injection, schedule: Q01DX001 (ip), vehicle: saline
[3] = dose: 400.0 mg/kg/injection, schedule: Q01DX001 (ip), vehicle: saline
[4] = dose: 100.0 mg/kg/injection, schedule: Q01DX009 (ip), vehicle: Klucel (hydroxypropylcellulose) (HPC)
[5] = dose: 100.0 mg/kg/injection, schedule: Q04DX003 (ip), vehicle: Klucel (hydroxypropylcellulose) (HPC)
[6] = dose: 200.0 mg/kg/injection, schedule: Q01DX009 (ip), vehicle: Klucel (hydroxypropylcellulose) (HPC)
[7] = dose: 200.0 mg/kg/injection, schedule: Q04DX003 (ip), vehicle: Klucel (hydroxypropylcellulose) (HPC)
[8] = dose: 400.0 mg/kg/injection, schedule: Q01DX009 (ip), vehicle: Klucel (hydroxypropylcellulose) (HPC)
[9] = dose: 400.0 mg/kg/injection, schedule: Q04DX003 (ip), vehicle: Klucel (hydroxypropylcellulose) (HPC)
[10] = dose: 100.0 mg/kg/injection, schedule: Q01DX001 (ip), vehicle: carboxymethylcellulose (CMC)
[11] = dose: 200.0 mg/kg/injection, schedule: Q01DX001 (ip), vehicle: carboxymethylcellulose (CMC)
[12] = dose: 400.0 mg/kg/injection, schedule: Q01DX001 (ip), vehicle: carboxymethylcellulose (CMC)
[13] = dose: 100.0 mg/kg/injection, schedule: Q01DX009 (ip), vehicle: saline
[14] = dose: 200.0 mg/kg/injection, schedule: Q01DX009 (ip), vehicle: saline
[15] = dose: 100.0 mg/kg/injection, schedule: Q04DX002 (ip), vehicle: Klucel (hydroxypropylcellulose) (HPC)

Measured: T/C

CN(C)c1ncnc2c1ncn2C1OC(CO)C(N)C1O (stereo unspecified)
inactive: dose: 6.25 mg/kg/injection, schedule: Q01DX009 (ip), vehicle: saline 111 % of control | dose: 12.5 mg/kg/injection, schedule: Q01DX009 (ip), vehicle: saline 111 % of control | dose: 25.0 mg/kg/injection, schedule: Q01DX009 (ip), vehicle: saline 117 % of control | dose: 50.0 mg/kg/injection, schedule: Q01DX001 (ip), vehicle: saline 109 % of control | [1] 109 % of control | [2] 109 % of control | [3] 115 % of control

CC(C)N(CCSc1ncnc2nc[nH]c12)C(C)C
inactive: dose: 75.0 mg/kg/injection, schedule: Q01DX001 (ip), vehicle: saline 96 % of control

Cc1nc2ccccc2c(Br)c1Br
inactive: [1] 91 % of control | [2] 94 % of control | [3] 96 % of control

CCOc1ccccc1NC(=O)Nc1ccccc1
inactive: [4] 92 % of control | [5] 95 % of control | [6] 96 % of control | [7] 109 % of control | [8] 91 % of control | [9] 98 % of control

Oc1ccccc1N=Cc1ccccc1
inactive: [1] 94 % of control | [2] 100 % of control | [3] 103 % of control

COc1ccc(C(=O)CC(=O)c2ccc(OC)cc2)cc1
inactive: dose: 50.0 mg/kg/injection, schedule: Q01DX001 (ip), vehicle: carboxymethylcellulose (CMC) 92 % of control | [10] 92 % of control | [11] 108 % of control | [12] 94 % of control

Cc1oc2c(O)ccc(N=Nc3cccc([N+](=O)[O-])c3)c2c1C
inactive: [6] 93 % of control | [8] 90 % of control

CCCCCCCCN(C)N=Nc1ccc(C(=O)O)cc1
inactive: dose: 25.0 mg/kg/injection, schedule: Q04DX003 (ip), vehicle: other 93 % of control | dose: 50.0 mg/kg/injection, schedule: Q04DX003 (ip), vehicle: other 90 % of control | [4] 102 % of control | dose: 100.0 mg/kg/injection, schedule: Q04DX003 (ip), vehicle: other 92 % of control | [6] 102 % of control | dose: 200.0 mg/kg/injection, schedule: Q04DX003 (ip), vehicle: other 90 % of control | dose: 300.0 mg/kg/injection, schedule: Q01DX009 (ip), vehicle: Klucel (hydroxypropylcellulose) (HPC) 98 % of control | [8] 122 % of control and 90 % of control | dose: 400.0 mg/kg/injection, schedule: Q04DX003 (ip), vehicle: other 95 % of control | dose: 600.0 mg/kg/injection, schedule: Q01DX009 (ip), vehicle: Klucel (hydroxypropylcellulose) (HPC) 98 % of control

CSC(c1ccccc1)=[N+]1CCOCC1
inactive: dose: 50.0 mg/kg/injection, schedule: Q01DX009 (ip), vehicle: saline sonified 100 % of control | dose: 100.0 mg/kg/injection, schedule: Q01DX009 (ip), vehicle: saline sonified 94 % of control | [5] 102 % of control | dose: 200.0 mg/kg/injection, schedule: Q01DX009 (ip), vehicle: saline sonified 100 % of control | [7] 98 % of control

CCC(C)(O)C#CC(C)(O)CC (stereo unspecified)
inactive: [1] 100 % of control | [13] 101 % of control | dose: 100.0 mg/kg/injection, schedule: Q04DX003 (ip), vehicle: saline 105 % of control | [2] 106 % of control | [14] 100 % of control | dose: 200.0 mg/kg/injection, schedule: Q04DX003 (ip), vehicle: saline 105 % of control | [3] 102 % of control | dose: 400.0 mg/kg/injection, schedule: Q04DX003 (ip), vehicle: saline 100 % of control

CC1OCC2OC(C)OC(C(COC(=O)c3ccc([N+](=O)[O-])cc3)OS(C)(=O)=O)C2O1 (stereo unspecified)
inactive: [4] 113 % of control | [5] 102 % of control | [6] 108 % of control | [7] 104 % of control | [8] 92 % of control | [9] 96 % of control

CCCCCCCCCCCCCCCC(=O)N(CCCC)CCCC
inactive: [10] 98 % of control | dose: 100.0 mg/kg/injection, schedule: Q01DX009 (ip), vehicle: carboxymethylcellulose (CMC) 96 % of control and 110 % of control | dose: 100.0 mg/kg/injection, schedule: Q04DX003 (ip), vehicle: carboxymethylcellulose (CMC) 96 % of control | [11] 102 % of control | dose: 200.0 mg/kg/injection, schedule: Q01DX009 (ip), vehicle: carboxymethylcellulose (CMC) 100 % of control and 110 % of control | dose: 200.0 mg/kg/injection, schedule: Q04DX003 (ip), vehicle: carboxymethylcellulose (CMC) 94 % of control | [12] 102 % of control | dose: 400.0 mg/kg/injection, schedule: Q01DX009 (ip), vehicle: carboxymethylcellulose (CMC) 96 % of control and 104 % of control | dose: 400.0 mg/kg/injection, schedule: Q04DX003 (ip), vehicle: carboxymethylcellulose (CMC) 96 % of control

CC1CCC(C(C)C)C(N(C)Cc2cc(Cl)cc(Cl)c2O)C1 (stereo unspecified)
inactive: dose: 50.0 mg/kg/injection, schedule: Q01DX009 (ip), vehicle: Klucel (hydroxypropylcellulose) (HPC) 107 % of control | [4] 105 % of control | [5] 104 % of control | [6] 107 % of control | [7] 98 % of control | [9] 101 % of control

O=C(O)C(CCc1ccccc1)(CCc1ccccc1)C(=O)O
inactive: [13] 95 % of control | [14] 94 % of control | dose: 400.0 mg/kg/injection, schedule: Q01DX009 (ip), vehicle: saline 111 % of control

C=C1C(=O)O[C@H]2C=C(C)[C@H]3[C@@H](OC(C)=O)C[C@@](C)(O)[C@@H]3C[C@H]12
inactive: dose: 50.0 mg/kg/injection, schedule: Q01DX Z (ip), vehicle: carboxymethylcellulose (CMC) 94 % of control

NC(=O)C(CCCN=C(N)N)NC(=O)CNC(=O)C(N)CO (stereo not drawn) (H-Ser-Gly-Arg-NH2; configuration not given here)
inactive: dose: 25.0 mg/kg/injection, schedule: Q04DX002 (ip), vehicle: Klucel (hydroxypropylcellulose) (HPC) 103 % of control | dose: 50.0 mg/kg/injection, schedule: Q04DX002 (ip), vehicle: Klucel (hydroxypropylcellulose) (HPC) 106 % of control | [15] 100 % of control

CCCCNC(=NC)c1ccc(NC(=O)c2ccc(C(=O)Nc3ccc(C(=NC)NCCCC)cc3)cc2)cc1
inactive: dose: 4.4 mg/kg/injection, schedule: Q01DX Z (ip), vehicle: saline 112 % of control | dose: 6.6 mg/kg/injection, schedule: Q01DX Z (ip), vehicle: saline 120 % of control

COc1cc(/C=N\NC(=S)Nc2ccc(S(=O)(=O)N3CCCCC3)cc2)cc(OC)c1OC
inactive: dose: 100.0 mg/kg/injection, schedule: Q04DX002 (ip), vehicle: saline with Tween-80 98 % of control | dose: 200.0 mg/kg/injection, schedule: Q04DX002 (ip), vehicle: saline with Tween-80 103 % of control | dose: 400.0 mg/kg/injection, schedule: Q04DX002 (ip), vehicle: saline with Tween-80 90 % of control

CC1(C)CC(=O)C2C(C1)Nc1ccccc1NC2c1cccc([N+](=O)[O-])c1 (stereo unspecified)
inactive: [15] 109 % of control | dose: 200.0 mg/kg/injection, schedule: Q04DX002 (ip), vehicle: Klucel (hydroxypropylcellulose) (HPC) 103 % of control

O=C1N(CCO)CNC1(c1ccccc1)c1ccccc1
inactive: dose: 100.0 mg/kg/injection, schedule: Q01DX001 (ip), vehicle: saline with Tween-80 102 % of control | dose: 200.0 mg/kg/injection, schedule: Q01DX001 (ip), vehicle: saline with Tween-80 98 % of control
